From US7402560B2, “NCAM binding compounds” (priority 1998, dated 2008)
Where a chain is given by its changes, count along the chain named. Numbers in names are those of the source. Entries after “also recorded” stand apart in the source; their conditions may differ. No end group written: not given here.

Experiments:
[1] = tested on: hippocampal neurons; assay: Neurite outgrowth from hippocampal neurons, stereological total neurite length per cell (ProcessLength); conditions: for neurite outgrowth (total neurite length per cell): low density culture
[2] = tested on: primary hippocampal neurones; assay: Neurite outgrowth from single primary hippocampal neurones (length of longest neurite, image analysis); assay type: cell-based, rat; conditions: for neurite outgrowth: substrate of plastic or fibronectin, 21 h
Procedure: The system allows the examination of cell adhesion, cell migration and formation of processes in the treated cells leading to possibly neurite outgrowth. To investigate the latter further, neurite extension from single neurones may be studied. Cells are prepared as in the aggregation study and seeded on a substrate of plastic or fibronectin. The cells are then maintained for a suitable time, whereafter the neurite outgrowth is analysed by a measurement of the neurite extension, for example by a computer-assisted image analysis program. The mean length of the longest neurite of each cell was measured for neurites longer than 10 μM (see FIG. 2). In addition, the mean number of branchpoints per neurite and the mean number of neurites per cell were determined. NCAM Ig1-Ig2 ligands to be tested are added immediately before seeding the cells.
5000 cells/well, corresponding to approximately 4000 cells/cm^2, were seeded in 8 well LabTek Tissue Culture Chamber Slides with a growth surface of Permanox plastic (NUNC A/S, Denmark) or fibronectin (cocultures) and maintained for 20 h as described in Example 7 (1).
To investigate the stimulatory effect on neurite extension, cells were prepared as described and seeded on a substrate of plastic or fibronectin. Cells were then maintained for 21 h and neurite outgrowth was analysed by computer-assisted image analysis using the program Linelength. The mean length of the longest neurite of each cell was measured for neurites longer than 10 μM. In addition, the mean number of branchpoints per neurite and the mean number of neurites per cell were determined.

[3] = molecular target: T1, NCAM Ig1 domain (Rattus norvegicus, UniProt P13596); assay: Plasmon surface resonance analysis of binding to NCAM Ig1; conditions: dendrimer peptides immobilised on sensor chip CM5, Ig1 in solution, 25° C.
T1 construct: encoding amino acids 1-97 of rat NCAM; made in house; host or cells: Pichia pastoris strain His 4 GS-115 (pHIL-S1 plasmid)
Procedure: Real-time biomolecular interaction analysis was performed using a BIAlite instrument (Pharmacia Biosensor AB, Sweden). […] Binding of Ig1 to dendrimer peptides: […] of Ig1 or Ig1I at the indicated concentrations were applied. The chip was regenerated by two […] pulses of 5 mM NaOH. Two independent experiments were performed.

[4] = tested on: hippocampal cells; assay: Aggregate cultures of dissociated hippocampal cells (NCAM mediated cell adhesion); conditions: for aggregation of cells (number of cell aggregates): 24 h after seeding, higher number of aggregates reflects inhibition of aggregation; for inhibitory effect on aggregation of hippocampal cells: peptides at 180 μM (FIG. 19)
[5] = tested on: primary hippocampal neurones on monolayers of fibroblasts; assay: Neurite outgrowth in cocultures of neurones on fibroblast monolayers with or without NCAM-140; assay type: cell-based, rat; conditions: 0.54 or 5.4 μM
Procedure: For cocultures, neurones were seeded on monolayers of fibroblasts, either L-cells or 3T3 cells with or without NCAM-B expression. Neurones were visualised using immunohistochemical staining for growth associated protein 43 kD (GAP43). Briefly, cells were fixed 30 min in 4% paraformaldehyde in phosphate buffered saline (PBS). The primary antibody was rabbit anti-GAP43 1:100 in PBS with 1% fetal bovine serum(FBS), 0.1% bovine serum albumin (BSA), 50 mM glycine, 0.02% NaN3, 2% saponine 1 h at room temperature or overnight at 4° C. The second antibody was biotinylated swine-anti-rabbit immunoglobulins 1:100 in PBS with 1% BSA 1 h at room temperature. The third “layer” was streptavidine coupled to FITC or horse radish peroxidase (HRP) 1:100 1 h at room temperature. Between layers, washings were performed 3×20 min in PBS with 1% BSA. Images of living or stained neurones were captured and analysed by the image analysis program Line Length created at the Protein Laboratory. Putative axons were identified as the longest neurite of each cell. Only neurites longer than […] were considered.
The mean length of neurites on NCAM-expressing fibroblasts was longer than the mean length of neurites on fibroblasts without NCAM expression.

[6] = tested on: primary hippocampal neurones; assay: Cell proliferation by BrdU incorporation ELISA; assay type: cell-based
Procedure: (§1) Cell proliferation was determined by incorporation of 5-bromo-2′-deoxyuridin in a cell proliferation ELISA system (Amersham Life Science) according to the procedure of the manufacturer. Primary hippocampal neurones were seeded in microtiter plates at a density of 33000 cells per well. […] However, the net effect on proliferation depended on the growth status of cell. […] The net effect depends on the growth status of the cells but under the proper circumstances, a stimulation of proliferation will result.

[7] = tested on: neuroblastoma cells; assay: Proliferation of neuroblastoma cells; assay type: cell-based
[8] = tested on: PC12 cells; assay: Proliferation and neurite outgrowth of PC12 cells; assay type: cell-based, rat
Procedure: The effect of the ligands on proliferation and cell growth was also tested. […] After this initial promotion of proliferation, the peptides stimulate differentiation by increasing neurite outgrowth and at the same time suppressing proliferation. Thus the net effect on proliferation depends on the growth status of the cells. An effect on proliferation has been shown for primary cell cultures from the hippocampus cells and cultures of rat pheochromocytoma cell line PC12 cells. Accordingly, the ligands stimulate neurite outgrowth from and/or proliferation of NCAM presenting cells.
as §1

[9] = tested on: primary hippocampal cells; assay: Cell growth by Cristal Violet staining; assay type: cell-based; conditions: 0.8 μM, 48 h
Procedure: Cell growth is another way of monitoring proliferation of the cells. Primary hippocampal cells were seeded into 96 well microtiter culture plates (Nunc A/S) at a density of 20.000 or 40.000 per well in defined medium as described above. Cells were grown for 48 h, centrifuged in order to remove medium, fixed in 3.7% formaldehyde in PBS for 15 min and stained with 0.5% Cristal Violet in 20% methanol for 15 min. Stained cells were thoroughly washed with Milli Q purified water, thereafter residual dye was solubilised with 0.1 M sodium citrate in 50% ethanol pH 4.2 and absorbance measured at 550 nm.

[10] = molecular target: T2, NCAM (20-208) (Rattus norvegicus, UniProt P13596); assay: Gel filtration chromatography of NCAM (20-208) dimer formation
T2 construct: made in house

COc1ccc2c(c1)CC[C@@H]1[C@@H]2CC[C@]2(C)[C@@H](NCCCCCCN3C(=O)C=CC3=O)CC[C@@H]12 [U-73122, reference compound]
effect on Ig2-peptide induced neurite outgrowth ([1]; 3.6 μM Ig2-peptide dendrimer, Ig1 25 μM, α-FGFR 1:2000, CHD 200 μM, U-73122 5 μM (FIG. 23)): completely abrogated

COC(=O)/C=C/c1cc(O)ccc1O [erbstatin analogue, reference compound]
effect on the stimulatory effect of C3 on neurite extension [2]: inhibit the stimulatory effect of C3 on neurite extension

COc1ccc(CCN(C)CCCC(C#N)(c2ccc(OC)c(OC)c2)C(C)C)cc1OC (stereo not shown) [verapamil, reference compound]
effect on the stimulatory effect of C3 on neurite extension [2]: inhibit the stimulatory effect of C3 on neurite extension

AKKERQRKDTQ (peptide fragment) [D3]
binding to the NCAM Ig1 domain [3]: bound the NCAM-Ig1 in solution; also recorded: bind to the NCAM Ig1 domain
neurite outgrowth [2]: strongly stimulated neurite outgrowth; also recorded: increase in neurite outgrowth
aggregation of cells (number of cell aggregates) [4]: inhibited aggregation of cells; also recorded: higher number of cell aggregates

ARALNWGAKPK (peptide fragment) [D4]
binding to the NCAM Ig1 domain [3]: bound the NCAM-Ig1 in solution; also recorded: bind to the NCAM Ig1 domain
neurite outgrowth [2]: strongly stimulated neurite outgrowth; also recorded: increase in neurite outgrowth
aggregation of cells (number of cell aggregates) [4]: inhibited aggregation of cells; also recorded: higher number of cell aggregates

ASKKPKRNIKA (peptide fragment) [C3]
binding to the NCAM Ig1 domain [3]: bound the NCAM-Ig1 in solution; also recorded: bind to the NCAM Ig1 domain
concentration of maximal neuritogenic effect [2]: 0.54 µM
branching of neurites ([2]; 0.54 μM): strongly stimulated
number of neurites per cell ([2]; 0.54 μM): strongly stimulated
length of the longest neurite ([2]; 0.54 μM, plastic (FIG. 11)): strongly stimulated
neurite outgrowth [2]: strongly stimulated neurite outgrowth; also recorded: increase in neurite outgrowth
NCAM-induced increase in neurite length on NCAM-140 expressing fibroblasts (LBN) [5]: no difference between the length of neurites on fibroblasts with or without NCAM expression
neurite extension on fibroblasts without NCAM expression (LVN) [5]: neurite extension was stimulated
proliferation ([6]; higher concentrations, bell-shaped dose-response curve): inhibited proliferation
proliferation of neuroblastoma cells [7]: promoted proliferation
neurite outgrowth of PC12 cells [8]: increased neurite outgrowth
proliferation of PC12 cells [8]: inhibitory effect on proliferation
cell growth [9]: increase cell growth
aggregation of cells (number of cell aggregates) [4]: inhibited aggregation of cells; also recorded: higher number of cell aggregates

C3d: Dendrimer of four C3 peptide monomers coupled to a backbone consisting of three lysines (ASKKPKRNIKA; also: dendrimer of four monomers coupled to a backbone of three lysines)
NCAM-induced increase in neurite length on NCAM-140 expressing fibroblasts (LBN) [5]: inhibited
neurite extension on fibroblasts without NCAM expression (LVN) [5]: stimulated neurite out-growth
incorporation of BrdU (neuronal proliferation) ([6]; 0.8 μM): increased incorporation of BrdU
aggregation of cells (number of cell aggregates) [4]: most potent form
number of aggregates of primary hippocampal neurones ([4]; 24 h in culture, 1.07 μM and 2.15 μM): increase in the number of aggregates formed

D3-dendrimer: Four D3 peptide-monomers coupled to a backbone consisting of three lysines (AKKERQRKDTQ; also: dendrimer of four monomers coupled to a backbone of three lysines)
aggregation of cells (number of cell aggregates) [4]: increased the number of aggregates formed

D4-dendrimer: Four D4 peptide-monomers coupled to a backbone consisting of three lysines (ARALNWGAKPK; also: dendrimer of four monomers coupled to a backbone of three lysines)
aggregation of cells (number of cell aggregates) [4]: increased the number of aggregates formed

GEISVGESKFFL (peptide fragment) [Ig1-p]
aggregation of cells ([4]; 24 h, 250 μg/ml (FIG. 24)): inhibited aggregation of cells
neurite outgrowth ([1]; 24 h, 5 μg/ml (FIG. 24)): promote neurite outgrowth

GRILARGEINFK (peptide fragment) [Ig2-p]
aggregation of cells (number of cell aggregates) [4]: inhibited aggregation of cells
neurite outgrowth (total neurite length per cell) ([1]; 24 h): strongly stimulated neurite outgrowth

GSILASGESNFK (peptide fragment) [P2-3S]
inhibitory effect on aggregation of hippocampal cells ([4]; 24 h): no inhibitory effect
neurite outgrowth (total neurite length per cell) ([1]; 24 h): no neuritogenic effect; also recorded: no stimulatory effect

GSILASGSSNFK [P2-4S]
inhibitory effect on aggregation of hippocampal cells ([4]; 24 h): only a slight inhibitory effect
neurite outgrowth (total neurite length per cell) ([1]; 24 h): no neuritogenic effect; also recorded: no stimulatory effect

omega-conotoxin GVIA [reference compound]
effect on the stimulatory effect of C3 on neurite extension [2]: inhibit the stimulatory effect of C3 on neurite extension

pertussis toxin [reference compound]
effect on the stimulatory effect of C3 on neurite extension [2]: inhibit the stimulatory effect of C3 on neurite extension

B1: Ig1-2: Unmutated recombinant double Ig domain (Ig1-Ig2) of NCAM, NCAM (20-208) (protein)
chain: LQVDIVPSQGEISVGESKFFLCQVAGDAKDKDISWFSPNGEKLSPNQQRISVVWNDDDSSTLTIYNANIDDAGIYKCVVTAEDGTQSEATVNVKIFQKLMFKNAPTPQEFKEGEDAVIVCDVVSSLPPTIIWKHKGRDVILKKDVRFIVLSNNYLQIRGIKKTDEGTYRCEGRILARGEINFKDIQVIV
dimer formation (elution in gel filtration) [10]: elutes as a dimer
neurite outgrowth (total neurite length per cell) ([1]; 24 h): only slight, if any, effect

B2: mutated double domain: NCAM (20-208) double Ig domain with mutations R192A, R196A and E198A (protein)
chain: B1 chain with R173A, R177A, E179A
neurite outgrowth (total neurite length per cell) ([1]; 24 h): inhibited in a dose dependent manner
